Laboratory results taken from PubChem BioAssay (NCI).
Values after ≈ are worked out from the molar mass of the structure shown.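 Dose response: 5 concentrations. Exposure: 48 h. Format: 96-well plates. Endpoint: linear interpolation; highest concentration if not reached. Abbreviation: GI50, concentration required for 50% inhibition of growth. TGI marks complete inhibition of growth.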

Tests used:
Test in all cases: NCI tumour cell line growth inhibition, 48 h
NCI-H522 lung = system: NCI-H522 lung
CAKI-1 renal = system: CAKI-1 renal
SK-MEL-28 melanoma = system: SK-MEL-28 melanoma
OVCAR-5 ovarian = system: OVCAR-5 ovarian
OVCAR-8 ovarian = system: OVCAR-8 ovarian
SN12C renal = system: SN12C renal
MDA-N = system: MDA-N
NCI-H23 lung = system: NCI-H23 lung
EKVX NSCLC = system: EKVX NSCLC
SK-OV-3 ovarian = system: SK-OV-3 ovarian

| SMILES | TGI (NCI-H522 lung) | TGI (CAKI-1 renal) | TGI (SK-MEL-28 melanoma) | TGI (OVCAR-5 ovarian) | TGI (OVCAR-8 ovarian) | TGI (SN12C renal) | TGI (MDA-N) | TGI (NCI-H23 lung) | TGI (EKVX NSCLC) | TGI (SK-OV-3 ovarian) | GI50 (SK-OV-3 ovarian) | GI50 (CAKI-1 renal) | GI50 (SK-MEL-28 melanoma) | GI50 (OVCAR-5 ovarian) | GI50 (OVCAR-8 ovarian) | GI50 (SN12C renal) | GI50 (MDA-N) | GI50 (NCI-H23 lung) | GI50 (EKVX NSCLC) |
| --- | --- | --- | --- | --- | --- | --- | --- | --- | --- | --- | --- | --- | --- | --- | --- | --- | --- | --- | --- |
| CC(C)N(C)C(=O)C12C3C4C1C1C2C3C41C#N (configuration not stated) | > 100 µM | > 100 µM | > 100 µM | > 100 µM | > 100 µM | > 100 µM | > 100 µM | > 100 µM | > 100 µM | – | – | – | – | – | – | – | – | – | – |
| CC(C)CNC(=O)Cn1c(-c2ccccc2)cc2ccccc21 | > 100 µM | > 100 µM | > 100 µM | > 100 µM | > 100 µM | > 100 µM | > 100 µM | > 100 µM | > 100 µM | > 100 µM | – | – | – | – | – | – | – | – | – |
| C=CC[C@@]1(C(=O)OC)[C@H](Sc2ccccc2)C1(C)C | 87.9 µM | > 100 µM | > 100 µM | > 100 µM | > 100 µM | 76.8 µM | – | 97.3 µM | > 100 µM | > 100 µM | – | – | – | – | – | – | – | – | – |
| COc1cc(C2SCC(=O)N2c2ccc(Oc3ccc(Cl)cc3)c(Cl)c2)cc(OC)c1OC (configuration not stated) | 37.1 µM | 33.6 µM | 35 µM | 55.7 µM | 30.7 µM | 56.2 µM | 45.1 µM | > 100 µM | 56.2 µM | 33.6 µM | – | – | – | – | – | – | – | – | – |
| COc1cc(/C=C2/N=C(c3ccccc3)N(C3=NNC4(C(=O)N3)c3ccccc3-c3ccccc34)NC2=O)ccc1O | – | 75.1 µg/mL | 60.4 µg/mL | > 150 µg/mL | 45.5 µg/mL | 56.8 µg/mL | 65 µg/mL | 15 µg/mL | 15 µg/mL | 37.8 µg/mL | 19 µg/mL (≈ 34.1 µM) | 22.4 µg/mL (≈ 40.3 µM) | 31.3 µg/mL (≈ 56.2 µM) | 44.6 µg/mL (≈ 80.1 µM) | 24 µg/mL (≈ 43.2 µM) | 25.6 µg/mL (≈ 46 µM) | 31.1 µg/mL (≈ 55.8 µM) | 15 µg/mL (≈ 27 µM) | 15 µg/mL (≈ 27 µM) |
| Cc1ccc(SC(=O)N2C(=S)NC(=NC3CCCCC3)C23CCCCC3)cc1 | > 100 µM | > 100 µM | > 100 µM | > 100 µM | – | > 100 µM | > 100 µM | > 100 µM | > 100 µM | > 100 µM | – | – | – | – | – | – | – | – | – |
| COc1cccc(-c2cc(=O)c3ccc(C)nc3[nH]2)c1 | > 100 µM | > 81.8 µM | > 100 µM | > 100 µM | > 100 µM | > 100 µM | – | > 100 µM | > 100 µM | > 60.6 µM | – | – | – | – | – | – | – | – | – |
| NCCCCNCCCNC(=O)c1nc(-c2csc(CCN)n2)sc1Cl | > 100 µM | > 100 µM | > 100 µM | > 100 µM | > 100 µM | > 100 µM | – | > 100 µM | > 100 µM | > 100 µM | – | – | – | – | – | – | – | – | – |
| CC(C)(C)OC[C@H](O)CC#N | – | > 100 µM | > 100 µM | > 100 µM | > 100 µM | > 100 µM | > 100 µM | > 100 µM | > 100 µM | > 100 µM | – | – | – | – | – | – | – | – | – |
| Cc1ccc(-c2n[nH]c(=O)[nH]2)cc1[N+](=O)[O-] | > 100 µM | > 100 µM | > 100 µM | > 100 µM | > 100 µM | > 100 µM | > 100 µM | > 100 µM | > 100 µM | – | – | – | – | – | – | – | – | – | – |
| Cc1ccc(N=Nc2c(C)c(C#N)c(=S)n(C3OC(CO)C(O)C(O)C3O)c2-c2ccccc2)cc1 (configuration not stated) | – | 92.6 µM | 43 µM | 55.9 µM | – | > 100 µM | 71.7 µM | 40.4 µM | – | > 100 µM | – | – | – | – | – | – | – | – | – |
| COc1c2cc(C(C)(C)C)cc1Cc1cccc(c1O)Cc1cc(C(C)(C)C)cc(c1OC)Cc1cccc(c1O)Cc1cc(C(C)(C)C)cc(c1OC)Cc1cccc(c1O)C2 | > 100 µM | > 100 µM | > 100 µM | > 100 µM | > 100 µM | > 100 µM | > 100 µM | – | > 100 µM | – | – | – | – | – | – | – | – | – | – |
| COC(=O)[C@@H]1C[C@@]2(C3C=CN(C(=O)C(F)(F)F)C=C3)c3ccccc3N(C(=O)C(F)(F)F)[C@H]2N1C(=O)OC | > 100 µM | > 100 µM | > 100 µM | > 100 µM | > 100 µM | > 100 µM | – | > 100 µM | > 100 µM | > 100 µM | – | – | – | – | – | – | – | – | – |
| CC(=Nc1ccncc1)C(C)=Nc1ccncc1 | 35.3 µM | 30.4 µM | > 100 µM | 31.9 µM | > 100 µM | 30 µM | – | 32.6 µM | 48.7 µM | > 100 µM | – | – | – | – | – | – | – | – | – |
| O=C1/C(=C2\Sc3c(ccc(Cl)c3Cl)C2=O)Sc2c1ccc(Cl)c2Cl | > 100 µM | > 100 µM | > 100 µM | > 100 µM | > 100 µM | > 100 µM | > 100 µM | > 100 µM | > 100 µM | – | – | – | – | – | – | – | – | – | – |
| O=C1c2cccc3cccc(c23)C(=O)N1CCCNOCCONCCCN1C(=O)c2cccc3cccc(c23)C1=O | – | > 100 µM | > 100 µM | > 100 µM | > 100 µM | – | > 100 µM | > 100 µM | > 100 µM | > 100 µM | – | – | – | – | – | – | – | – | – |
| c1ccc2c(c1)nc1n2CCSC1 | – | > 100 µM | > 100 µM | > 100 µM | – | > 100 µM | > 100 µM | > 100 µM | > 100 µM | > 100 µM | – | – | – | – | – | – | – | – | – |
| COc1cc(/C=C2\CCC(C)C3=C2NC(=S)NC3c2cc(OC)c(OC)c(OC)c2)cc(OC)c1OC (configuration not stated) | – | > 100 µM | > 100 µM | > 100 µM | > 100 µM | > 100 µM | > 100 µM | – | > 100 µM | > 100 µM | – | – | – | – | – | – | – | – | – |
| CCc1c(C)c(C#N)c(=S)n(C2OC(CO)C(O)C(O)C2O)c1C (configuration not stated) | > 100 µM | – | > 100 µM | > 100 µM | > 100 µM | > 100 µM | > 100 µM | > 100 µM | > 100 µM | > 100 µM | – | – | – | – | – | – | – | – | – |
| COc1cc2c(cc1OC)-c1c3c(cc4c1[C@@H](C2)N(C)CC4)OCO3 | 21.1 µM | 51.4 µM | 24.9 µM | 37.3 µM | 31.9 µM | 39 µM | – | 26.1 µM | 37.3 µM | 50.6 µM | – | – | – | – | – | – | – | – | – |
| Oc1ccc(CCc2cc(O)cc(O)c2)cc1 | > 100 µM | > 100 µM | > 100 µM | > 100 µM | > 100 µM | > 100 µM | – | > 100 µM | > 100 µM | > 100 µM | – | – | – | – | – | – | – | – | – |
| O=C(NCCCNCCNC(=O)c1cc(-c2ccccc2)nc2ccccc12)c1cc(-c2ccccc2)nc2ccccc12 | 3.14 µM | 5.45 µM | 3.26 µM | – | 3.16 µM | 3.24 µM | 3.36 µM | – | 5.2 µM | 6.34 µM | – | – | – | – | – | – | – | – | – |
